Data taken from patent publication US20230218577A1, “USE OF HEAT SHOCK PROTEIN INHIBITORS FOR THE TREATMENT OF NEURODEVELOPMENTAL DISORDERS” (The Children's Medical Center Corporation, priority 2020, published 2023).

System: IGF-IRβ, pS6 in wild-type cortical neurons
Test: Proteasomal inhibition experiment, Western blot in wild-type cortical neurons
Assay type: cell-based, rat
Conditions: 100 nM bortezomib with 4 μM 17-AGG
Protocol: Hippocampi and cortexes from 18-day-old rat embryos (Charles River CD1) were isolated under the microscope and collected in Hank's Balanced Salt Solution containing 10 mM MgCl2, 1 mM kynurenic acid, 10 mM HEPES and penicillin/streptomycin. After 5 min dissociation at 37° C. in 30 U/ml of papain, neurons were mechanically triturated and plated in Neurobasal (NB) medium containing B27 supplement, 2 mM L-glutamine, penicillin/streptomycin and primocin (NB/B27). Biochemical analysis was performed on cortical cultures plated at 1×10^6 cells/well onto six-well plates. Immunofluorescent analysis was performed on hippocampal cultures plated at 20×10^3 cells/well onto 96-well plates. All plates were coated with 20 μg/ml poly-D-lysine (PDL).
Stocks of drugs were freshly diluted in NB media before performing each experiment. The same amount of vehicle was used as vehicle-only control. For dose response curves serial dilutions were freshly made in NB media by a manual multichannel pipette using compound dilution plates.
Protein extracts were lysed in 1×SDS (22 mM Tris-HCl pH 6.8, 4% Glycerol, 0.8% SDS, 1.6% β-mercaptoethanol, bromphenol blue) sample buffer, heated to 95° C. for 5 min and stored frozen. Before being subjected to discontinuous gel electrophoresis, equal amounts of all protein lysates were verified by Coomassie gel staining. For immunoblotting, equal amounts of protein lysates were subjected to SDS-PAGE, transferred to Immobilon-P Millipore and incubated in LI-COR blocking solution at RT for 2 hrs. Primary and secondary antibodies were diluted in LI-COR blocking solution to the appropriate concentrations. LI-COR IRDye secondary antibodies were used. All images were acquired using the LI-COR Odyssey Classic imager and associated Image Studio Lite analysis software (version 5.2.5). Quantification of protein expression was performed by densitometry scans of immunoblots using LI-COR Odyssey imaging system.

For `CC(C)C[C@H](NC(=O)[C@H](Cc1ccccc1)NC(=O)c1cnccn1)B(O)O` [BTZ, bortezomib], the “reduction in S6 phosphorylation caused by 17-AGG” value was “prevented” and the “reduction of IGF-IRβ levels caused by 17-AGG” value was “prevented”.
